Reference: article PMC2765805 (Journal of medicinal chemistry, 2009)
Where two headings read alike, the source gives them in different places.

Assays:
[1] = target: T1, human A3 adenosine receptor (Homo sapiens, UniProt P0DMS8); experiment: biochemical; parameters: species or system CHO; conditions: read-out: % inhibition
T1 sequence (P0DMS8 1-318): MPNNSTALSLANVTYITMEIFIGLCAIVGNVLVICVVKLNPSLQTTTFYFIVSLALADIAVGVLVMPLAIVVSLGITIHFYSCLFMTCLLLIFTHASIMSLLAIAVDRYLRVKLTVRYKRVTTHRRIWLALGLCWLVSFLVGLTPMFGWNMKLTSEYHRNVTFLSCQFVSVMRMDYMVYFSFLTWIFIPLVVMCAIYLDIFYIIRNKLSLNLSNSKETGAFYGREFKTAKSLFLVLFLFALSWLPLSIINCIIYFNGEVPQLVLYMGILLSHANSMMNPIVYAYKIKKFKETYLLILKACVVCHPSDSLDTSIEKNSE

[2] = target: T1, human A3 adenosine receptor; experiment: biochemical; parameters: species or system CHO; conditions: read-out: % inhibition; remark: listed apart in the source

Which inhibition at 10 µM [1] does the source give for `Clc1ccc(Nc2nc3ccccc3c3[nH]c(C4CCCCC4)nc23)cc1Cl` [compound 3] here?
Its inhibition at 10 µM is 40.5 ± 13.4%.

And the inhibition at 10 µM [2]?
Its inhibition at 10 µM is 40.5 ± 13.4%.
